Reference: patent US20130337564A1, “Treatment of Pluripotent Cells” (Janssen Biotech, Inc., priority 2012, published 2013)
Values joined by “and” are separate entries in the source; they are usually repeats but may differ in a detail not shown here. Equal values may be shown once.

Experiments:
Assay type in all cases: cell-based
[1] = test system: HNF-3beta expression in human embryonic stem cells (H9 line); assay: High content screening assay: HNF-3beta protein expression (differentiation); conditions: for HNF-3b Expression Fold over Wnt 3a/AA control: total intensity normalised to Wnt 3a/AA control
Method: (§1) Maintenance of human embryonic stem cells (H9 line) was conducted as described in Example 1. Colonies of cells were maintained in an undifferentiated, pluripotent state with passage on average every four days. Passage was performed by exposing cell cultures to a solution of collagenase (1 mg/ml; Sigma-Aldrich) for 10 to 30 minutes at 37° C. followed by gentle scraping with a pipette tip to recover cell clusters. Clusters were allowed to sediment by gravity, followed by washing to remove residual collagenase. Cell clusters were split at a 1:3 ratio for routine maintenance culture or a 1:1 ratio for immediate assay. The human embryonic stem cell lines used were maintained at passage numbers less than passage 50 and routinely evaluated for normal karyotypic phenotype and absence of mycoplasma contamination.
(§2) Cell clusters used in the assay were evenly resuspended in normal culture medium and plated onto MATRIGEL-coated 96-well Packard VIEWPLATES (PerkinElmer) in volumes of […]. MEF conditioned medium supplemented with 8 ng/ml bFGF was used for initial plating and recovery. Daily feeding was conducted by aspirating spent culture medium from each well and replacing with an equal volume of fresh medium. Plates were maintained at 37° C., 5% CO2 in a humidified box throughout the duration of assay.
(§3) Screening was conducted using test compounds from a proprietary library of small molecules selected for their ability to inhibit GSK-3B enzyme activity. Compounds from this library were made available as 1 mM stocks, in a 96-well plate format in 50 mM HEPES, 30% DMSO. Screening compounds were tested in triplicate or duplicate sets. Primary screening assays were initiated by aspirating culture medium from each well followed by three washes in PBS to remove residual growth factors and serum. Test volumes of 80 to 100 μl per well were added back containing DMEM:F12 base medium (Invitrogen) supplemented with 0.5% FCS (HyClone) and 100 ng/ml activin A (R&D Biosystems) plus 10 μM test compound. Positive control wells contained the same base medium, substituting 10-20 ng/ml Wnt3a (R&D Biosystems) for the test compound. Negative control wells contained base medium with 0.5% FCS and activin A alone (AA only) or alternatively, 0.5% FCS without activin A or Wnt3a (no treatment). Wells were aspirated and fed again with identical solutions on day 2 of assay. On days 3 and 4, all assay wells were aspirated and converted to DMEM:F12 supplemented with 2% FCS and 100 ng/ml activin A (without test compound or Wnt3a); parallel negative control wells were maintained in DMEM:F12 base medium with 2% FCS and activin A (AA only) or alternatively, 2% FCS without activin A (no treatment).
(§4) At the end of culture, cells in 96-well plates were fixed with 4% paraformaldehyde at room temperature for 20 minutes, washed three times with PBS, and then permeabilized with 0.5% Triton X-100 for 20 minutes at room temperature. Alternatively, cells were fixed with ice cold 70% ethanol overnight at −20° C., washed three times with PBS, and then permeabilized with Triton X-100 for 5 minutes at 4° C. After fixing and permeabilizing, cells were washed again three times with PBS and then blocked with 4% chicken serum (Invitrogen) in PBS for 30 minutes at room temperature. Primary antibodies (goat anti-human Sox17 and goat anti-human HNF-3beta; R&D Systems) were diluted 1:100 in 4% chicken serum and added to cells for one hour at room temperature. Alexa Fluor 488 conjugated secondary antibody (chicken anti-goat IgG; Molecular Probes) was diluted 1:200 in PBS and added after washing the cells three times with PBS. To counterstain nuclei, 5 mM Draq5 (Alexis Biochemicals) was added for five minutes at room temperature. Cells were washed once with PBS and left in […] PBS for imaging.
(§5) Cells were imaged using an IN Cell Analyzer 1000 (GE Healthcare) utilizing the 51008bs dichroic for cells stained with Draq5 and Alexa Fluor 488. […]

[2] = test system: Sox17 expression in human embryonic stem cells (H9 line); assay: High content screening assay: Sox17 protein expression (differentiation); conditions: for SOX17 Expression, Fold over Wnt 3a/AA control: 10 μM test compound with 100 ng/ml activin A on days 1-2, H9, total intensity by IN Cell Analyzer, strong and moderate hits; for SOX-17 Expression Fold over Wnt 3a/AA control: total intensity normalised to Wnt 3a/AA control
Method: as §1, §2, §3, §4, §5

[3] = test system: human embryonic stem cells (H9 line); assay: High content screening assay: cell number (proliferative response)
Method: as §1, §2, §3, §4, §5

[4] = test system: cells expressing pluripotency markers derived from human embryonic stem cells; assay: MTS viability (toxicity) assay of cells expressing pluripotency markers; set-up: Raw data (duplicate), first replicate / Average: unit not given here; conditions: for Raw data (duplicate), first replicate / Raw data (duplicate), second replicate: MTS viability assay raw reading; for Raw data (duplicate), first replicate: replicate 1; for Raw data (duplicate), second replicate: replicate 2; for Average: average of duplicate MTS raw readings
Procedure, shortened: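 Cells expressing pluripotency markers, derived from human embryonic stem cells, were plated at 20,000 cells per well in 96-well clear-bottom plates and cultured overnight. Test compounds were applied in assay medium on days 1 and 2, and compound-free medium on days 3 and 4. On day 4, MTS was added and optical density at 490 nm was read in duplicate.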

[5] = 10 μM test compound with 100 ng/ml activin A on days 1-2, H9, total intensity by IN Cell Analyzer, strong and moderate hits
[6] = 10 μM test compound with 100 ng/ml activin A on days 1-2, H9, total cell number by IN Cell Analyzer, strong and moderate hits
[7] = cell number in the wells analysed for HNF-3b expression
[8] = cell number in the wells analysed for HNF-3b expression, normalised to Wnt 3a/AA control
[9] = cell number in the wells analysed for SOX-17 expression
[10] = cell number in the wells analysed for SOX-17 expression, normalised to Wnt 3a/AA control
[11] = viability of cells expressing pluripotency markers, relative to control

Structure (SMILES)	fold induction at 10 µM ([1]; Homo sapiens, Embryonic stem cell, 10 μM test compound with 100 ng/ml activin A on days 1-2, H9, total intensity by IN Cell Analyzer, strong and moderate hits, read-out: HNF3β Expression, Fold over Wnt 3a/AA control)	SOX17 Expression, Fold over Wnt 3a/AA control [2]	fold induction at 10 µM ([3]; Homo sapiens, Embryonic stem cell, 10 μM test compound with 100 ng/ml activin A on days 1-2, H9, total cell number by IN Cell Analyzer, strong and moderate hits, read-out: Proliferative Response, Fold over Wnt 3a/AA control)	viability at 10 µM ([4]; Homo sapiens, Embryonic stem cell, viability of cells expressing pluripotency markers, relative to control)	HNF3β Expression, Fold over Wnt 3a/AA control [1, 5]	HNF-3b Expression Total Intensity [1]	HNF-3b Expression Fold over Wnt 3a/AA control [1]	SOX-17 Expression Total Intensity [2]	SOX-17 Expression Fold over Wnt 3a/AA control [2]	Proliferative Response Fold over Wnt 3a/AA control [3, 6]	Proliferative Response Total cells [3, 7]	Proliferative Response Fold over Wnt 3a/AA control [3, 8]	Proliferative Response Total cells [3, 9]	Proliferative Response Fold over Wnt 3a/AA control [3, 10]	Raw data (duplicate), first replicate [4]	Raw data (duplicate), second replicate [4]	Average [4]	% Control [4, 11]
O=C1NC(=O)C(c2cn(-c3cccnc3)c3ccccc23)=C1c1n[nH]c2ccccc12 [Compound 14]	0.869	1.0080 Fold over Wnt 3a/AA control	1.05	95.1%	–	–	–	–	–	–	–	–	–	–	–	–	–	–
CCN1CCOCCn2cc(c3ccccc32)C2=C(C(=O)NC2=O)c2cn(c3ccccc23)CCOCC1 [Compound 15, 11-Ethyl-6,7,10,11,12,13,15,16-octahydro-9H,23H-5,26:17,22-di(metheno)dibenzo[k,q]pyrrolo[3,4-n][1,7,4,10,19]dioxatriazacyclohenicosine-23,25(24H)-dione]	–	1.2678 Fold over Wnt 3a/AA control	–	–	0.8807 Fold over Wnt 3a/AA control	404710000	0.8807 fold	475250000	1.2678 fold	1.3217 Fold over Wnt 3a/AA control and 1.0269 Fold over Wnt 3a/AA control	5186	1.027 fold	10533	1.322 fold	0.162	0.134	0.148	4.5%
O=C1NC(=O)C2=C1c1cn(c3ncccc13)CCOCCOCCOCCn1cc2c2cccnc21 [Compound 167]	–	0.9014 Fold over Wnt 3a/AA control	–	–	0.9515 Fold over Wnt 3a/AA control	437235000	0.9515 fold	337920000	0.9014 fold	0.9928 Fold over Wnt 3a/AA control	5013	0.9928 fold	6217	0.7801 fold	0.804	0.903	0.853	109.0%
